This passage reports IC50 and inhibition results from patent US9630958B2, “Triazine compounds” (Sphaera Pharma Pte. Ltd., priority 2012, dated 2017).

A value given as a limit tells only on which side of the number the result lay.

In experiment [1] the target is T1, Recombinant mTOR (FRAP1) (Homo sapiens, UniProt P42345).
T1 construct: purchased Invitrogen
As to the kind of experiment: mTOR in vitro kinase assay (TR-FRET, phosphorylation of GFP-4E-BP1). Type of experiment: biochemical. Conditions: for IC50: 8 μM ATP, 400 nM GFP-4E-BP1; for inhibition at 1 µM: 1 uM compound, read-out: mTOR % Inhib@1 uM. The method, boiled down:
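Recombinant human mTOR with GFP-4E-BP1 substrate at 400 nM and 8 μM ATP, 1 h at room temperature, then quenched with 10 mM EDTA plus 2 nM Tb-anti-p4E-BP1 (pThr46) for 1 h. TR-FRET 520/486 nm ratio fitted against inhibitor concentration by four-parameter sigmoidal regression.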
(In TR-FRET formats the signal depends on donor and acceptor labels being close together.)

Experiment [2] concerns the target T2, PI3 Kinase alpha (p110 alpha/p85 alpha) (Homo sapiens, UniProt P42336).
T2 construct: purchased Invitrogen
Description: PI3K TR-FRET assay (Transcreener ADP2). The format is biochemical. Conditions: for inhibition at 1 µM: 1 uM compound, read-out: PI3K % Inhib@1 uM; for IC50: PI3K alpha, 1 μM ATP, 50 μM PIP2. The method, boiled down: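 p110α/p85α with diC8 PIP2 (50 μM) and 1 μM ATP in 50 mM HEPES pH 7.4, MgCl2, CHAPS, DTT, EGTA; 1 h at room temperature. ADP detected by Transcreener ADP2 TR-FRET (665/615 nm ratio), converted to product via ADP-ATP standard curve; IC50 from four-parameter fit of % inhibition.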

T2 sequence (P42336 whole entry): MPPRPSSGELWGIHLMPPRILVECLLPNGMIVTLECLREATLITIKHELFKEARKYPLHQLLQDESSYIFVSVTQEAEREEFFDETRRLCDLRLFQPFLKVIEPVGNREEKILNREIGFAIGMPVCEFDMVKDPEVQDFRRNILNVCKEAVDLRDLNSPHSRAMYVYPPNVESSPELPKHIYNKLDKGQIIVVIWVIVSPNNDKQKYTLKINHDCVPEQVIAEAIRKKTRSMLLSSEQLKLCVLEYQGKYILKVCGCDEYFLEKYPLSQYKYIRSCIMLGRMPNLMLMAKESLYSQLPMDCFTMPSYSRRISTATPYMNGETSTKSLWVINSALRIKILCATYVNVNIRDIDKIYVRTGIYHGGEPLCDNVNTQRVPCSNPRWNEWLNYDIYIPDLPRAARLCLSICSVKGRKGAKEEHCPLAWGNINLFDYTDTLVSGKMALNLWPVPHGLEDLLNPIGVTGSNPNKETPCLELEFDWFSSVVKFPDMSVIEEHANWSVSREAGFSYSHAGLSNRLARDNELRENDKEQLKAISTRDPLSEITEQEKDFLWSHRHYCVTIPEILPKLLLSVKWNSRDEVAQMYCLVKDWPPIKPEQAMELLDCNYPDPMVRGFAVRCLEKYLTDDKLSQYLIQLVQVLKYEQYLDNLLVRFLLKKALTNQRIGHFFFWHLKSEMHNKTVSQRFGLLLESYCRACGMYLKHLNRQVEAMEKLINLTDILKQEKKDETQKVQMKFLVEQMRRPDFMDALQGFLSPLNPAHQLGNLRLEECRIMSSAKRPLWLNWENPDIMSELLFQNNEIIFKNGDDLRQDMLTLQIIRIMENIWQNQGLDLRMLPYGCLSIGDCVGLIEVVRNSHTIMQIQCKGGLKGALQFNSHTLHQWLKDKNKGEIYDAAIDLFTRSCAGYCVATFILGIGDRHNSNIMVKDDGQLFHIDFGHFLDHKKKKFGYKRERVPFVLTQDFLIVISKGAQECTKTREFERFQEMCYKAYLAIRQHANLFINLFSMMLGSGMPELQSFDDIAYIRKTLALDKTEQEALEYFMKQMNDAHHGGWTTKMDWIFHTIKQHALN
T2 sequence (P27986 whole entry partner): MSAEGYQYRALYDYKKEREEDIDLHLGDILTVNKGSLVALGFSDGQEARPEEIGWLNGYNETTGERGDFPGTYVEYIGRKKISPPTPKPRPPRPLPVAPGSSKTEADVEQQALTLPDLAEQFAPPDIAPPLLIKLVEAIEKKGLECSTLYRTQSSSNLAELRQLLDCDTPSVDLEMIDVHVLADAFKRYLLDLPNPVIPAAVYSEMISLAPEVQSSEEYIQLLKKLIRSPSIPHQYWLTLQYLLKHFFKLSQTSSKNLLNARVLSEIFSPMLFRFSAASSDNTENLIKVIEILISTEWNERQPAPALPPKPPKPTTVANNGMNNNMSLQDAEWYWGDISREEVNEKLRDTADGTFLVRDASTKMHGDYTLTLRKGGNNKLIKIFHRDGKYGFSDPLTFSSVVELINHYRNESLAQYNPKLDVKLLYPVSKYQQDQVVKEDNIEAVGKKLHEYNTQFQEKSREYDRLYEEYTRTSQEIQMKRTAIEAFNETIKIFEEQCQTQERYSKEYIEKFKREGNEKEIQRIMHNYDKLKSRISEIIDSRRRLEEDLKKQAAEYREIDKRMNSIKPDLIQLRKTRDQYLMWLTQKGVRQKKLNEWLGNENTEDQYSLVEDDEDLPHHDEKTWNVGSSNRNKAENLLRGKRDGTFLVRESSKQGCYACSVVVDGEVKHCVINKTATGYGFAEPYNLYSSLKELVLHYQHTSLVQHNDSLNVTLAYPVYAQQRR
T1 sequence (P42345 1360-2549 limits assumed): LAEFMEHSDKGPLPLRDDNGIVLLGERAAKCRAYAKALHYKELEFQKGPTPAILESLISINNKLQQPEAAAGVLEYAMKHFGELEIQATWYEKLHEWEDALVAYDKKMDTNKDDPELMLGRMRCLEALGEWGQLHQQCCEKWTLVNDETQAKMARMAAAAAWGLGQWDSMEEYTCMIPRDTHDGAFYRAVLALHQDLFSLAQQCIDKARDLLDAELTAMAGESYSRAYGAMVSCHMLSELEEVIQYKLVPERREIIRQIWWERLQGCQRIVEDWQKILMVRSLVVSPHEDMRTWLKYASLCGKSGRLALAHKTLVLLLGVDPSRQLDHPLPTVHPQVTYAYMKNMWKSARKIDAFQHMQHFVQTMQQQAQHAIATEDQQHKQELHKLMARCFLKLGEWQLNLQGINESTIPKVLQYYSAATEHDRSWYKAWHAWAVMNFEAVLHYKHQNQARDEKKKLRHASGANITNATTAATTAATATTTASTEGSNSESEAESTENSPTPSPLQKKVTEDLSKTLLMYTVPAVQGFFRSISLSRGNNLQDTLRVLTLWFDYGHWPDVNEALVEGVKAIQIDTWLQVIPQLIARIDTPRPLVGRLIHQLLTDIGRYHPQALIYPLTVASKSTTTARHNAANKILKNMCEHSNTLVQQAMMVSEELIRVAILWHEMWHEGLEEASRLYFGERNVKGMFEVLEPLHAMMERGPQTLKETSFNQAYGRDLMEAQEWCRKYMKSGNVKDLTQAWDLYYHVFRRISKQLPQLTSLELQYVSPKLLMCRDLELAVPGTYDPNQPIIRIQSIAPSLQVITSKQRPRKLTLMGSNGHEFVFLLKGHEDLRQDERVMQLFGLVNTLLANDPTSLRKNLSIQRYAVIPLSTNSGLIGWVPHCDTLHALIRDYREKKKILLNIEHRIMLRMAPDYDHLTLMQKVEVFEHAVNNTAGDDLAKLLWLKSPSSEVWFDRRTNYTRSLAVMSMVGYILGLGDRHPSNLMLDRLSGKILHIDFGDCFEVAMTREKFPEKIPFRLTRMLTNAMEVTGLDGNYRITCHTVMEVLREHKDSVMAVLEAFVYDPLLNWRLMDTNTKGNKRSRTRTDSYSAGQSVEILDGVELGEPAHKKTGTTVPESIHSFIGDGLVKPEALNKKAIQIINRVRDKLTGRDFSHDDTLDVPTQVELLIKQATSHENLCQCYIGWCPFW

Regarding `CN(C)C(=O)c1ccc(Oc2nc(-c3ccc(N)nc3)nc(N3CC4CCC(C3)O4)n2)c(F)c1` [Compound 10095], the IC50 is under 1000 nM in experiment [1] and over 1000 nM in experiment [2]. Moreover, the inhibition at 1 µM in experiment [2] was under 50%.
As to `CN(C)C(=O)c1ccc(Oc2nc(-c3ccc(N)nc3)nc(N3[C@@H]4CC[C@H]3COC4)n2)cc1` [Compound 10050, 4-(4-(6-aminopyridin-3-yl)-6-((1R,5S)-3-oxa-8-azabicyclo[3.2.1]octan-8-yl)-1,3,5-triazin-2-yloxy)-N,N-dimethylbenzamide], in experiment [1], the inhibition at 1 µM is over 50% and the IC50 is under 1000 nM. The 50% inhibitory concentration (IC50) in experiment [2] was over 1000 nM.
As for `C[C@@H]1CN(c2nc(Oc3ccc(C(=O)N(C)C)cc3F)nc(-c3cnc(N)s3)n2)[C@@H](C)CO1` [Compound 10057, 4-((4-(2-Aminothiazol-5-yl)-6-((2R,5S)-2,5-dimethylmorpholino)-1,3,5-triazin-2-yl)oxy)-3-fluoro-N,N-dimethylbenzamide], the half-maximal inhibitory concentration (IC50) in experiment [1] was under 1000 nM. Besides, the inhibition at 1 µM in experiment [2] was under 50%.
`CN(C)C(=O)c1ccc(Oc2nc(-c3cnc(N)[nH]3)nc(N3CCOCC3)n2)cc1` [Compound 10124, 4-(4-(2-amino-1H-imidazol-5-yl)-6-morpholino-1,3,5-triazin-2-yloxy)-N,N-dimethylbenzamide]: the inhibition at 1 µM in experiment [1] and in experiment [2] was under 50% throughout.
Consider `CN(C)C(=O)N1CCC(Oc2nc(-c3cnc(N)s3)nc(N3CCOCC3)n2)CC1` [Compound 10003, 4-(4-(2-aminothiazol-5-yl)-6-morpholino-1,3,5-triazin-2-yloxy)-N,N-dimethylpiperidine-1-carboxamide], for which, in experiment [1], the inhibition at 1 µM is over 50%. Moreover, the IC50 in experiment [1] and in experiment [2] was under 1000 nM each time.
As for `C[C@H]1CN(c2nc(Oc3ccc(C(=O)N(C)C)cc3F)nc(-c3cnc(N)s3)n2)[C@@H](C)CO1` [Compound 10153, 4-(4-(2-aminothiazol-5-yl)-6-((2S,5S)-2,5-dimethylmorpholino)-1,3,5-triazin-2-yloxy)-3-fluoro-N,N-dimethylbenzamide], the half-inhibitory concentration (IC50) in experiment [1] is under 1000 nM. Moreover, in experiment [2], the inhibition at 1 µM was under 50% and the IC50 is under 1000 nM.
For `CN(C)C(=O)C1CCC(Oc2nc(-c3ccc4[nH]ccc4c3)nc(N3CCO[C@@H]4CCC[C@H]43)n2)CC1` (stereo partly drawn) [Compound 10150, (1S,4s)-4-(4-((4aR,7aR)-hexahydrocyclopenta[b][1,4]oxazin-4(4aH)-yl)-6-(1H-indol-5-yl)-1,3,5-triazin-2-yloxy)-N,N-dimethylcyclohexanecarboxamide], the IC50 in experiment [1] is over 10000 nM. In addition, the inhibition at 1 µM in experiment [2] is under 50%.
With `C[C@H]1COCCN1c1nc(OC2CCN(C(=O)N(C)C)CC2)nc(-c2cnc(N)s2)n1` [Compound 10137, 4-(4-(2-aminothiazol-5-yl)-6-((S)-3-methylmorpholino)-1,3,5-triazin-2-yloxy)-N,N-dimethylpiperidine-1-carboxamide], in experiment [1], the inhibition at 1 µM is over 50% and the IC50 is under 1000 nM. For the same compound, the IC50 in experiment [2] was under 1000 nM.
For the compound `C[C@H]1COCCN1c1nc(Oc2ccc(C(=O)N(C)C)cc2)nc(C2=CC=C(N)N(O)C2)n1` [Compound 10125], the inhibition at 1 µM in experiment [1] and in experiment [2] was under 50% throughout.
Turning to `CN(C)C(=O)c1ccc(Oc2nc(-c3ccc4[nH]ncc4c3)nc(N3C4CCC3COC4)n2)c(F)c1` [Compound 10136, 4-(4-(3-oxa-8-aza-bicyclo[3.2.1]octan-8-yl)-6-(1H-indazol-5-yl)-1,3,5-triazin-2-yloxy)-3-fluoro-N,N-dimethylbenzamide], in experiment [1], the inhibition at 1 µM was over 50% and the IC50 is under 1000 nM. Besides, in experiment [2], the inhibition at 1 µM was under 50% and the IC50 is over 10000 nM.
Take `NC(=O)c1ccc(Oc2nc(-c3cnc(N)s3)nc(N3CCOCC3)n2)cc1` [Compound 10201, 4-((4-(2-aminothiazol-5-yl)-6-morpholino-1,3,5-triazin-2-yl)oxy)benzamide]: the inhibition at 1 µM in experiment [1] was under 50%. The compound also came in with an IC50 in experiment [2] of under 1000 nM.
`C[C@H]1COCCN1c1nc(Oc2ccc(C(=O)N(C)C)cc2F)nc(-c2cnc(N)s2)n1` [Compound 10010, (S)-4-(4-(2-aminothiazol-5-yl)-6-(3-methylmorpholino)-1,3,5-triazin-2-yloxy)-3-fluoro-N,N-dimethylbenzamide]: in experiment [1], the inhibition at 1 µM is over 50% and the 50% inhibitory concentration (IC50) was under 1000 nM. Besides, in experiment [2], the inhibition at 1 µM is over 50% and the IC50 was under 1000 nM.
As to `CS(=O)(=O)N1CCC(COc2nc(-c3cnc(N)s3)nc(N3CCOCC3)n2)C1` (centres unmarked) [Compound 10197, 5-(4-((1-(methylsulfonyl)pyrrolidin-3-yl)methoxy)-6-morpholino-1,3,5-triazin-2-yl)thiazol-2-amine], in experiment [1], the inhibition at 1 µM was under 50%. In experiment [2], this compound yielded a 50% inhibitory concentration (IC50) of under 1000 nM.
With `CNc1ncc(-c2nc(Oc3ccc(C(=O)N(C)C)cc3)nc(N3CCOCC3)n2)s1` [Compound 10007, N,N-dimethyl-4-(4-(2-(methylamino)thiazol-5-yl)-6-morpholino-1,3,5-triazin-2-yloxy)benzamide], in experiment [1], the inhibition at 1 µM is over 50% and the half-inhibitory concentration (IC50) was under 1000 nM. Further, the IC50 in experiment [2] is over 1000 nM.
Consider `C[C@H]1COCCN1c1nc(Oc2ccc(C(=O)N(C)C)cc2)nc(-c2cnc(NC(=O)Nc3cccnc3)s2)n1` [Compound 10092], for which, in experiment [1], the IC50 is under 1000 nM. In experiment [2], the inhibition at 1 µM is under 50% and the concentration for half-maximal inhibition (IC50) was under 1000 nM.
Take `CN(C)C(=O)NC1CCN(c2nc(-c3ccc(N)nc3)nc(N3CCOCC3)n2)CC1` [Compound 10188, 3-(1-(4-(6-aminopyridin-3-yl)-6-morpholino-1,3,5-triazin-2-yl)piperidin-4-yl)-1,1-dimethylurea]: the inhibition at 1 µM in experiment [1] was under 50%. This compound showed an IC50 in experiment [2] of over 1000 nM.
With `CN(C)C(=O)c1ccc(Oc2nc(-c3cnc(N)s3)nc(N3[C@@H]4CC[C@H]3COC4)n2)cc1` [Compound 10011, 4-(4-(2-aminothiazol-5-yl)-6-((1R,5S)-3-oxa-8-azabicyclo[3.2.1]octan-8-yl)-1,3,5-triazin-2-yloxy)-N,N-dimethylbenzamide], the inhibition at 1 µM in experiment [1] is over 50%. For the same compound, the values for the 50% inhibitory concentration (IC50) in experiment [1] and in experiment [2] were under 1000 nM and over 1000 nM, respectively.
In the case of `CN(C)C(=O)c1ccc(Oc2nc(-c3cnc(N)s3)nc(N3CCOc4ccccc43)n2)cc1` [Compound 10029, 4-(4-(2-aminothiazol-5-yl)-6-(2H-benzo[b][1,4]oxazin-4(3H)-yl)-1,3,5-triazin-2-yloxy)-N,N-dimethylbenzamide], the inhibition at 1 µM was over 50% in experiment [1] and under 50% in experiment [2]. The results for the IC50 in experiment [1] and in experiment [2] were under 1000 nM and over 1000 nM, respectively.
For `C[C@@H]1CN(c2nc(Oc3ccc(C(=O)N(C)C)cc3F)nc(-c3ccc4[nH]ncc4c3)n2)[C@H](C)CO1` [Compound 10162, 4-(4-(1H-indazol-5-yl)-6-((2R,5R)-2,5-dimethylmorpholino)-1,3,5-triazin-2-yloxy)-3-fluoro-N,N-dimethylbenzamide], the IC50 in experiment [1] was over 1000 nM; in experiment [2], over 10000 nM.
For `C[C@H]1COCCN1c1nc(OC2CCC(C(=O)N(C)C)CC2)nc(-c2ccc3[nH]ccc3c2)n1` (stereo partly drawn) [Compound 10141, (1R,4s)-4-(4-(1H-indol-5-yl)-6-((S)-3-methylmorpholino)-1,3,5-triazin-2-yloxy)-N,N-dimethylcyclohexanecarboxamide], the IC50 in experiment [1] is under 1000 nM. In experiment [2], the inhibition at 1 µM is under 50% and the 50% inhibitory concentration (IC50) is over 10000 nM.
Take `CN(C)C(=O)c1ccc(Oc2nc(-c3cnc(N)s3)nc(N3CCOCC3)n2)c(F)c1` [Compound 10022, 4-(4-(2-aminothiazol-5-yl)-6-morpholino-1,3,5-triazin-2-yloxy)-3-fluoro-N,N-dimethylbenzamide]: in experiment [1], the inhibition at 1 µM is over 50% and the IC50 is under 1000 nM. The compound also yielded an IC50 in experiment [2] of under 1000 nM.
Turning to `Cc1nc(N)sc1-c1nc(Oc2ccc(C(=O)N(C)C)cc2)nc(N2CCOCC2)n1` [Compound 10199, 4-((4-(2-amino-4-methylthiazol-5-yl)-6-morpholino-1,3,5-triazin-2-yl)oxy)-N,N-dimethylbenzamide], the inhibition at 1 µM in experiment [1] is under 50%. In experiment [2], the IC50 is under 1000 nM.
For the compound `CN(C)C(=O)c1ccc(Oc2nc(-c3cnc(N)cc3C(F)(F)F)nc(N3CCOCC3)n2)cc1` [Compound 10015, 4-(4-(6-amino-4-(trifluoromethyl)pyridin-3-yl)-6-morpholino-1,3,5-triazin-2-yloxy)-N,N-dimethylbenzamide], the inhibition at 1 µM in experiment [1] was over 50%. The IC50 in experiment [1] and in experiment [2] was under 1000 nM throughout.
As for `CN(C)C(=O)c1ccc(Oc2nc(-c3cnc(N)s3)nc(N3C[C@H]4C[C@@H](C3)O4)n2)cc1` [Compound 10046, 4-(4-(2-aminothiazol-5-yl)-6-((1R,5S)-6-oxa-3-azabicyclo[3.1.1]heptan-3-yl)-1,3,5-triazin-2-yloxy)-N,N-dimethylbenzamide], the inhibition at 1 µM in experiment [1] and in experiment [2] was under 50% throughout.
For the compound `C[C@H]1COCCN1c1nc(Oc2ccc(C(=O)N(C)C)cc2)nc(-c2ccc(N)nc2)n1` [Compound 10096, (S)-4-((4-(6-Aminopyridin-3-yl)-6-(3-methylmorpholino)-1,3,5-triazin-2-yl)oxy)-N,N-dimethylbenzamide], in experiment [1], the inhibition at 1 µM is over 50% and the half-maximal inhibitory concentration (IC50) is under 1000 nM. The same compound showed an IC50 in experiment [2] of under 1000 nM.

One may read the IC50 as the midpoint of a concentration-inhibition curve.
